Laboratory results as given in ChEMBL document CHEMBL1759859, “Sargachromanols as inhibitors of Na+/K+ ATPase and isocitrate lyase” (Bioorg Med Chem Lett, 2011).
≈ marks a conversion by molar mass, not a printed value. Calls of active or inactive are those of the source. No cut-off for these calls is given here.

Key:
[1] = Inhibition of porcine cerebral cortex Na+/K+ ATPase by spectrophotometry; assay type: tissue-based, Sus scrofa
Aspergillus fumigatus = experiment: Antifungal activity against Aspergillus fumigatus HIC 6094 at 100 ug/ml after 2 weeks; assay type: functional, organism-based
[2] = system: Trichophyton mentagrophytes; experiment: Antifungal activity against Trichophyton mentagrophytes IFO 40996 at 100 ug/ml after 2 weeks; assay type: functional, organism-based
Trichophyton rubrum = experiment: Antifungal activity against Trichophyton rubrum IFO 9185 at 100 ug/ml after 2 weeks; assay type: functional, organism-based
Candida albicans = experiment: Antifungal activity against Candida albicans ATCC 10231 at 100 ug/ml after 2 weeks; assay type: functional, organism-based
Isocitrate lyase = Isocitrate lyase (Candida albicans, UniProt Q9P8Q7); experiment: Inhibition of Candida albicans ICL assessed as formation of glyoxylate phenylhydrazone by spectrophotometry
Proteus vulgaris = experiment: Antibacterial activity against Proteus vulgaris ATCC 3851 after 24 hrs by broth dilution method; assay type: functional; settings: ATCC 3851, 24 h
Micrococcus luteus = experiment: Antibacterial activity against Micrococcus luteus IFC 12708 after 24 hrs by broth dilution method; assay type: functional; settings: IFC 12708, 24 h
Bacillus subtilis = experiment: Antibacterial activity against Bacillus subtilis ATCC 6633 after 24 hrs by broth dilution method; assay type: functional; settings: ATCC 6633, 24 h
Salmonella typhimurium = experiment: Antibacterial activity against Salmonella Typhimurium ATCC 14028 after 24 hrs by broth dilution method; assay type: functional, Salmonella enterica subsp. enterica serovar Typhimurium; settings: Salmonella enterica, ATCC 14028, 24 h

Isocitrate lyase, sequence (Q9P8Q7 whole entry): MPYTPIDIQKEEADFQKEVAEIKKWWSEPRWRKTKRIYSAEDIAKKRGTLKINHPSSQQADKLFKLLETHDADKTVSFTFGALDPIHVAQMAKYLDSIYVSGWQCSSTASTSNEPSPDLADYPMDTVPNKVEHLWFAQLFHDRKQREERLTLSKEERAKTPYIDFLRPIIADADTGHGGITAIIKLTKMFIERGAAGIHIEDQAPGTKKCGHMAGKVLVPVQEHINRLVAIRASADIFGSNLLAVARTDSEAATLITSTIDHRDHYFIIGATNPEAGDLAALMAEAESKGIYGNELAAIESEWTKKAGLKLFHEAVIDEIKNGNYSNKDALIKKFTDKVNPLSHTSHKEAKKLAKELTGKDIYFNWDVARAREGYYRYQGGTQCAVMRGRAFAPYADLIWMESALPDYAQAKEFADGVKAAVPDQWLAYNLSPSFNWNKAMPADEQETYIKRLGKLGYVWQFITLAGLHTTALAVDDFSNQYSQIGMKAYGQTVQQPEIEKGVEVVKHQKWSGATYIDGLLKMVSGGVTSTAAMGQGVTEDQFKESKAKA

What does the source list for `C[C@@H]1O[C@@H](O[C@H]2C[C@@H](O)[C@]3(CO)[C@H]4[C@H](O)C[C@]5(C)[C@@H](C6=CC(=O)OC6)CC[C@]5(O)[C@@H]4CC[C@]3(O)C2)[C@H](O)[C@H](O)[C@H]1O` [OUABAIN]?
IC50 [1]: 4.6 µM; inhibition (Aspergillus fumigatus): inactive; inhibition [2]: inactive; inhibition (Trichophyton rubrum): inactive; inhibition (Candida albicans): inactive

With `CC(C)=CC[C@@H](O)/C(C)=C/CC/C(C)=C/CC[C@]1(C)CCc2cc(O)cc(C)c2O1` [SARGACHROMANOL C] as the compound, how does the IC50 (Isocitrate lyase) read?
Its IC50 is > 485 µM.

For `CC(C)=C[C@@H]1C(=O)C(C)=C[C@H]1C/C(C)=C/CC[C@]1(C)CCc2cc(O)cc(C)c2O1` [SARGACHROMANOL P], which IC50 (Isocitrate lyase) is on record?
Its IC50 is 149 µM.

For `CC(C)=C[C@@H](O)C(=O)/C(C)=C/CC/C(C)=C/CC[C@]1(C)CCc2cc(O)cc(C)c2O1` [SARGACHROMANOL G], which IC50 (Isocitrate lyase) is on record?
The IC50 was > 469 µM.

Which IC50 (Isocitrate lyase) does the source give for `CC(C)=C/C(C=O)=C(/C)CCC/C(C)=C/CC[C@]1(C)CCc2cc(O)cc(C)c2O1` [SARGACHROMANOL M] here?
Its IC50 is 173 µM.

Which MIC (Proteus vulgaris) does the source give for `CC1(C)S[C@@H]2[C@H](NC(=O)[C@H](N)c3ccccc3)C(=O)N2[C@H]1C(=O)O` [AMPICILLIN] here?
The MIC was 0.78 µg/mL (≈ 2.23 µM).

What about the inhibition (Aspergillus fumigatus) of the same compound?
Its inhibition is “inactive”.

What about the MIC (Micrococcus luteus) of the same compound?
The MIC was 0.78 µg/mL (≈ 2.23 µM).

And the inhibition [2]?
Its inhibition is “inactive”.

And the MIC (Bacillus subtilis)?
Its MIC is 0.78 µg/mL (≈ 2.23 µM).

And the MIC (Salmonella typhimurium)?
The MIC was 0.78 µg/mL (≈ 2.23 µM).

And the inhibition (Trichophyton rubrum)?
The inhibition was “inactive”.

And the inhibition (Candida albicans)?
Its inhibition is “inactive”.

For `C/C(C=O)=C\CC/C(C)=C/CC[C@]1(C)CCc2cc(O)cc(C)c2O1` [SARGACHROMANOL A], which IC50 (Isocitrate lyase) is on record?
Its IC50 is 185 µM.

Which IC50 (Isocitrate lyase) does the source give for `CC(C)=CC(CO)/C(C)=C/CC/C(C)=C/CC[C@]1(C)CCc2cc(O)cc(C)c2O1` (stereo partly drawn) [SARGACHROMANOL L] here?
Its IC50 is 117 µM.

For `CC(C)=C[C@@H](O)[C@@H](O)/C(C)=C/CC/C(C)=C/CC[C@]1(C)CCc2cc(O)cc(C)c2O1` [SARGACHROMANO D], which IC50 (Isocitrate lyase) is on record?
Its IC50 is > 467 µM.

For `C/C(=C\CC[C@]1(C)CCc2cc(O)cc(C)c2O1)CCCC(C)C(=O)[C@@H](O)CC(C)C` (stereo partly drawn) [SARGACHROMANOL J], which IC50 (Isocitrate lyase) is on record?
Its IC50 is > 464 µM.

For `CC(C)=C/C(C=O)=C(\C)CCC/C(C)=C/CC[C@]1(C)CCc2cc(O)cc(C)c2O1` [SARGACHROMANO N], which IC50 (Isocitrate lyase) is on record?
Its IC50 is > 487 µM.

With `O=C(O)CC[N+](=O)[O-]` as the compound, how does the inhibition (Aspergillus fumigatus) read?
Its inhibition is “inactive”.

And the inhibition [2]?
The inhibition was “inactive”.

And the inhibition (Trichophyton rubrum)?
The inhibition was “inactive”.

And the inhibition (Candida albicans)?
Its inhibition is “inactive”.

With `CC(C)=C[C@@H](O)C(=O)C(C)CCC/C(C)=C/CC[C@]1(C)CCc2cc(O)cc(C)c2O1` (stereo partly drawn) [SARGACHROMANOL I] as the compound, how does the IC50 (Isocitrate lyase) read?
Its IC50 is > 467 µM.

For `CC(C)=CC(C(=O)O)/C(C)=C/CC/C(C)=C/CC[C@]1(C)CCc2cc(O)cc(C)c2O1` (stereo partly drawn) [SARGACHROMANOL O], which IC50 (Isocitrate lyase) is on record?
The IC50 was > 469 µM.

With `COC(/C(C)=C/CC/C(C)=C/CC[C@]1(C)CCc2cc(O)cc(C)c2O1)[C@H](O)C=C(C)C` (stereo partly drawn) [SARGACHROMANOL F] as the compound, how does the IC50 (Isocitrate lyase) read?
The IC50 was > 452 µM.

For `CC(C)=CC(=O)[C@@H](O)/C(C)=C/CC/C(C)=C/CC[C@]1(C)CCc2cc(O)cc(C)c2O1` [SARGACHROMANOL K], which IC50 (Isocitrate lyase) is on record?
The IC50 was > 469 µM.

With `C/C(=C\CC[C@]1(C)CCc2cc(O)cc(C)c2O1)C/C=C\C(C)C(=O)[C@H](O)CC(C)C` (stereo partly drawn) [SARGACHROMANOL H] as the compound, how does the IC50 (Isocitrate lyase) read?
The IC50 was > 467 µM.

With `C/C(=C\CC/C(C)=C/CC[C@]1(C)CCc2cc(O)cc(C)c2O1)CO` [SARGACHROMANOL B] as the compound, how does the IC50 (Isocitrate lyase) read?
The IC50 was > 581 µM.

For `CC(C)=C[C@H](O)[C@@H](O)/C(C)=C/CC/C(C)=C/CC[C@]1(C)CCc2cc(O)cc(C)c2O1` [SARGACHROMANOL E], which IC50 (Isocitrate lyase) is on record?
Its IC50 is > 467 µM.
